Data taken from PMC11013662, “New Thiosemicarbazide Derivatives with Multidirectional Biological Action” (Molecules, 2024).
Values after ≈ are worked out from the molar mass of the structure shown.

Legend:
[1] = system: V79 Chinese hamster lung cells; experiment: MTT cytotoxicity assay; format: cell-based; conditions: Cricetulus griseus, V 79 normal cells, 72 h
Experimental: Both lines were obtained from American Type Culture Collection (ATCC, Rockville, MD, USA). The culture used to grow the SW 620 cells was prepared in MEM (ThermoSci, Waltham, MA, USA). The V79 cells were cultured in RPMI (Biowest SAS, Nuaillé, France) with the addition of 20 mM HEPES (Biowest, Nuaillé, France), 10% fetal bovine serum (FBS, Sigma-Aldrich, St. Louis, MO, USA), 100 µg/mL of streptomycin, and 100 U/mL of penicillin (Gibco, Grand Island, NY, USA). The eligible level of cells confluence was 80–90%, and both cell cultures were maintained in a humidified incubator set at 37 °C with 5% CO2 until they reached it.
The MTT assay was used to establish the cytotoxic activity of the studied compounds. The mechanism of this method relies on enzymatic conversion of 3-(4,5-dimethylthiazol-2-yl)-2,5-diphentyltetrazolium bromide salt (MTT) into insoluble formazan crystals by mitochondrial dehydrogenases within viable cells.
The process starts with the preparation of 96-well plates by placing cells at a density of 1 × 10^4 per well and incubating them for 24 h to adhere. Afterwards, the cells were treated with different concentrations of thiosemicarbazide derivatives, from 20 to 100 µM, except the control group which remained not exposed. Next, cells were incubated for 72 h at 37 °C with a 5% CO2. Then, a solution of MTT (0.5 mg/mL) was added to each well and plates were incubated for 4 h more in the same conditions.
To dissolve precipitated formazan crystals, a mixture of DMSO and isopropanol (in a 1:1 ratio, v/v) was used. For the spectrophotometric survey, we used MultiscanGo from Thermo Scientific with the wavelength value set at 570 nm to measure absorbance.
Cell viability was determined as the percentage of MTT reduction in the treated cells compared to the control group (unexposed cells). The relative MTT level, represented as a percentage, was calculated using the formula [A]/[B] × 100, where [A] stands for the absorbance of the treated cell sample and [B] for the absorbance of unexposed to studied compounds sample (control group). […] To calculate IC50 values (concentration at which 50% of cell viability is inhibited), we used GraphPad Prism 8.0.1 software.

[2] = system: SW 620 human metastatic colon cancer cells; experiment: MTT cytotoxicity assay; format: cell-based; conditions: for IC50: Homo sapiens, SW 620, MTT, 72 h; for SI (Selectivity Index): IC50 for normal cell line (V79)/IC50 cancer cell line (SW 620)
Experimental: Both lines were obtained from American Type Culture Collection (ATCC, Rockville, MD, USA). The culture used to grow the SW 620 cells was prepared in MEM (ThermoSci, Waltham, MA, USA). The V79 cells were cultured in RPMI (Biowest SAS, Nuaillé, France) with the addition of 20 mM HEPES (Biowest, Nuaillé, France), 10% fetal bovine serum (FBS, Sigma-Aldrich, St. Louis, MO, USA), 100 µg/mL of streptomycin, and 100 U/mL of penicillin (Gibco, Grand Island, NY, USA). […] The MTT assay was used to establish the cytotoxic activity of the studied compounds. […] The process starts with the preparation of 96-well plates by placing cells at a density of 1 × 10^4 per well and incubating them for 24 h to adhere. […] Next, cells were incubated for 72 h at 37 °C with a 5% CO2. Then, a solution of MTT (0.5 mg/mL) was added to each well and plates were incubated for 4 h more in the same conditions. To dissolve precipitated formazan crystals, a mixture of DMSO and isopropanol (in a 1:1 ratio, v/v) was used. […] Cell viability was determined as the percentage of MTT reduction in the treated cells compared to the control group (unexposed cells). The relative MTT level, represented as a percentage, was calculated using the formula [A]/[B] × 100, where [A] stands for the absorbance of the treated cell sample and [B] for the absorbance of unexposed to studied compounds sample (control group).

Rhabditis sp. = experiment: Anthelmintic activity assay on nematode culture; format: cell-based; conditions: 24 h exposure
Experimental: All compounds in the anthelmintic activity study were prepared in the form of a homogeneous suspension. The anthelmintic activity was tested according to the procedure developed by Bogucka-Kock and Kołodziej. The tested compounds were added to the culture of Rhabditis sp. at experimentally determined concentrations. […] LC50 values (lethal concentration) were determined for two active substances. It was defined as the amount of the substance causing the death of 50% of nematodes.

Structure (SMILES)	melting point	IC50 [1]	IC50 [2]	SI (Selectivity Index) [2]	LC50 (Rhabditis sp.)
FC(F)(F)c1cccc(-c2n[nH]c(=S)n2-c2cccc(Cl)c2)c1 [Compound 4, 4-(3-Chlorophenyl)-5-(3-trifluoromethylphenyl)-2,4-dihydro-3H-1,2,4-triazole-3-thione]	–	> 100 µM	> 100 µM	1	370 µg/mL (≈ 1.04 mM)
COc1cccc(NC(=S)NNC(=O)c2cccc(C(F)(F)F)c2)c1 [Compound 3b, 1-(3-Trifluoromethylbenzoyl)-4-(3-methoxyphenyl)thiosemicarbazide]	181.3 °C	> 100 µM	> 100 µM	1	–
O=C(NNC(=S)Nc1cccc(Cl)c1)c1cccc(C(F)(F)F)c1 [Compound 3a, 4-(3-Chlorophenyl)-1-(3-trifluoromethylbenzoyl)thiosemicarbazide]	–	40.5 ± 3.83 µM	69 ± 12.6 µM	0.59	14800 µg/mL (≈ 39.5 mM)
O=C(NNC(=S)Nc1cccc(F)c1)c1cccc(C(F)(F)F)c1 [Compound 3e, 1-(3-Trifluoromethylbenzoyl)-4-(3-fluorophenyl)thiosemicarbazide]	174.4 °C	> 100 µM	89.9 ± 14.6 µM	–	–

Now from value to compound, other results behind:

melting point	Structure (SMILES)	IC50 [1]	IC50 [2]	SI (Selectivity Index) [2]	LC50 (Rhabditis sp.)
161.6 °C	CCCCNC(=S)NNC(=O)c1cccc(C(F)(F)F)c1 [Compound 3c, 4-Butyl-1-(3-trifluoromethylbenzoyl)thiosemicarbazide]	> 100 µM	> 100 µM	1	–
176.4 °C	O=C(NNC(=S)Nc1ccccc1)c1cccc(C(F)(F)F)c1 [Compound 3f, 1-(3-Trifluoromethylbenzoyl)-4-(phenyl)thiosemicarbazide]	> 100 µM	> 100 µM	1	–
230.7 °C	Cc1cccc(NC(=S)NNC(=O)c2cccc(C(F)(F)F)c2)c1 [Compound 3d, 1-(3-Trifluoromethylbenzoyl)-4-(3-methylphenyl)thiosemicarbazide]	69.1 ± 5.45 µM	> 100 µM	0.69	–
